# Laboratory results as given in US11052060B2, “Compounds and methods for treating autoimmunity” (ImmunoMolecular Therapeutics, INC., priority 2018, dated 2021).
# Columns and labels:
# insulin/DQ8 = insulin/DQ8 (Homo sapiens, UniProt P01909+P01920); test: Inhibition of DQ8 antigen presentation to insulin-responsive CD4 TCR transductant (Clone 5), secreted IL-2 by ELISA; assay type: cell-based; conditions: for Clone 5 IC50 (insulin/DQ8) / IC50: Clone 5 TCR transductant, HLA-DQ8 antigen presenting cells with insulin peptide, secreted IL-2; for inhibition of an insulin-responsive CD4 T cell receptor (TCR) transductant: FIG. 3A / FIG. 4A, secreted IL-2 by ELISA, result in words
# insulin/DQ8, sequence (P01920 33-261 limits assumed, other chains not shown): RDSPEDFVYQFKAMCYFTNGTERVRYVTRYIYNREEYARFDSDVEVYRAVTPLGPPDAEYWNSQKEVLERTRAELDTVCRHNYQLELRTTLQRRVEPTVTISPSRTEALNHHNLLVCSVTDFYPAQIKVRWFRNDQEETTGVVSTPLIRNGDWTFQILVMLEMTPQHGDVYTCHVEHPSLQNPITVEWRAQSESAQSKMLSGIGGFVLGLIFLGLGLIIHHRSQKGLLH
# Method: (§1) Inhibition of DQ8 antigen presentation by compounds of this disclosure was tested and compared in vitro. HLA-DQ8 antigen presenting cells were cultured with a fixed concentration of peptide and a concentration of one of the tested compounds for 4 hours. TCR transductants were then added to each culture condition and cultured overnight. Secreted IL-2 from the TCR transductant was measured by ELISA for each condition.
# (§2) In these figures, 0 represents the TCR transductant response to peptide without the addition of the test compound.
# α-gliadin/DQ8 = α-gliadin/DQ8 (Homo sapiens, UniProt P01909+P01920); test: Inhibition of DQ8 antigen presentation to gliadin-responsive CD4 TCR transductant (489), secreted IL-2 by ELISA; assay type: cell-based; conditions: for 489 IC50 (α-gliadin/DQ8) / IC50: 489 TCR transductant, HLA-DQ8 antigen presenting cells with α-gliadin peptide, secreted IL-2; for inhibition of gliadin-responsive CD4 TCR: FIG. 3B / FIG. 4B, secreted IL-2 by ELISA, result in words
# α-gliadin/DQ8, sequence (P01920 33-261 limits assumed, other chains not shown): as above
# Method: as §1, §2
Structure (SMILES),Clone 5 IC50 (insulin/DQ8) (insulin/DQ8),489 IC50 (α-gliadin/DQ8) (α-gliadin/DQ8),IC50 (insulin/DQ8) [µM],IC50 (α-gliadin/DQ8) [µM],inhibition of an insulin-responsive CD4 T cell receptor (TCR) transductant (insulin/DQ8),inhibition of gliadin-responsive CD4 TCR (α-gliadin/DQ8)
"CC(N)(Cc1ccc(O)cc1)C(=O)O (stereo not drawn) [α-methyltyrosine, 2-amino-3-(4-hydroxyphenyl)-2-methylpropanoic acid]",No inhibition,No inhibition,,,,
"CCOC(=O)C(C)(N)Cc1ccc(O)c(O)c1 (stereo not drawn) [α-methyldopa ethyl ester, Ethyl-2-amino-3-(3,4 dihydroxyphenyl)-2-methylpropanoate]",,,5.8,7.8,,
"C[C@@](N)(Cc1ccc(O)c(O)c1)C(=O)O (stereo in doubt) [α-methyldopa, 2-amino-3-(3,4-dihydroxyphenyl)-2-methylpropanoic acid]",,,3.4,17.7,concentration-dependent inhibition,concentration-dependent inhibition
CC(C)(C)C(N)(Cc1ccc(O)c(O)c1)C(=O)O.Cl (centres unmarked) [Compound F994-0666],,,,,concentration-dependent inhibition,concentration-dependent inhibition
"CC(N)(Cc1ccccc1)C(=O)O (stereo not drawn) [α-methylphenylalanine, 2-amino-2-methyl-3-phenylpropanoic acid]",No inhibition,No inhibition,,,,
"CC(N)[C@H](O)c1ccc(O)c(O)c1 (stereo in doubt) [α-methylnorepinephrine, 4-(2-amino-1-hydroxypropyl)benzene-1,2-diol]",No inhibition,No inhibition,,,,
